Measured values taken from PubChem BioAssay (NCI).
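All cell lines were grown in 96-well plates and treated with compound for 48 hours. Abbreviation: GI50, concentration required for 50% inhibition of growth. Definition used: TGI = concentration required for complete inhibition of growth.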

Experiments:
Assay in all cases: NCI anticancer screen, dose series, 48 h
MCF7 breast = tested on: MCF7 breast
HS 578T breast = tested on: HS 578T breast
NCI-H522 lung = tested on: NCI-H522 lung
TK-10 renal = tested on: TK-10 renal
SF-295 CNS = tested on: SF-295 CNS
NCI-H460 lung = tested on: NCI-H460 lung
K-562 leukemia = tested on: K-562 leukemia
ACHN renal = tested on: ACHN renal
RXF 393 renal = tested on: RXF 393 renal
SN12C renal = tested on: SN12C renal

Question: For CCOC(=O)C1=C(C)NC(C)=C(C(=O)OCCNC(=O)c2ccc(N=[N+]=[N-])cc2)C1c1ccccc1C(F)(F)F (stereo not given), which TGI (MCF7 breast) is on record?
Answer: Its TGI is 12.2 µM.

Question: What about the TGI (HS 578T breast) of the same compound?
Answer: The TGI was 21.5 µM.

Question: And the TGI (NCI-H522 lung)?
Answer: The TGI was 19.3 µM.

Question: And the TGI (TK-10 renal)?
Answer: Its TGI is 31.1 µM.

Question: What about the TGI (SF-295 CNS) of the same compound?
Answer: Its TGI is 21.5 µM.

Question: What about the TGI (NCI-H460 lung) of the same compound?
Answer: The TGI was 21.5 µM.

Question: What about the TGI (K-562 leukemia) of the same compound?
Answer: The TGI was 21.5 µM.

Question: What about the TGI (ACHN renal) of the same compound?
Answer: The TGI was 21.5 µM.

Question: What about the TGI (RXF 393 renal) of the same compound?
Answer: Its TGI is 21.5 µM.

Question: And the TGI (SN12C renal)?
Answer: Its TGI is 21.5 µM.

Question: How did the GI50 (MCF7 breast) turn out when O=C(NCCCl)NCCN1c2nc3ccccc3cc2Sc2cc3ccccc3nc21 was run?
Answer: The GI50 was 1.02 µM.

Question: And the TGI (MCF7 breast)?
Answer: The TGI was 2.59 µM.

Question: And the GI50 (HS 578T breast)?
Answer: Its GI50 is 0.962 µM.

Question: What about the TGI (HS 578T breast) of the same compound?
Answer: Its TGI is 9.57 µM.

Question: And the GI50 (NCI-H522 lung)?
Answer: Its GI50 is 4.23 µM.

Question: What about the TGI (NCI-H522 lung) of the same compound?
Answer: Its TGI is over 53.3 µM.

Question: And the GI50 (TK-10 renal)?
Answer: The GI50 was 7.12 µM.

Question: And the TGI (TK-10 renal)?
Answer: Its TGI is 28.1 µM.

Question: What about the GI50 (SF-295 CNS) of the same compound?
Answer: The GI50 was 0.569 µM.

Question: What about the TGI (SF-295 CNS) of the same compound?
Answer: Its TGI is 3.75 µM.

Question: What about the GI50 (NCI-H460 lung) of the same compound?
Answer: Its GI50 is 0.475 µM.

Question: What about the TGI (NCI-H460 lung) of the same compound?
Answer: Its TGI is 1.94 µM.

Question: And the GI50 (K-562 leukemia)?
Answer: The GI50 was 2.14 µM.

Question: What about the TGI (K-562 leukemia) of the same compound?
Answer: The TGI was over 25 µM.

Question: What about the GI50 (ACHN renal) of the same compound?
Answer: Its GI50 is 3.02 µM.

Question: And the TGI (ACHN renal)?
Answer: Its TGI is over 45.9 µM.

Question: What about the GI50 (RXF 393 renal) of the same compound?
Answer: The GI50 was 6.45 µM.

Question: And the TGI (RXF 393 renal)?
Answer: The TGI was 27.9 µM.

Question: What about the GI50 (SN12C renal) of the same compound?
Answer: Its GI50 is 3.04 µM.

Question: And the TGI (SN12C renal)?
Answer: The TGI was over 47.6 µM.

Question: How did the GI50 (MCF7 breast) turn out when COc1cc(-c2cc(-c3cccs3)c(C#N)c(N3CCOCC3)n2)cc(OC)c1OC was run?
Answer: Its GI50 is 6.68 µM.

Question: And the TGI (MCF7 breast)?
Answer: The TGI was over 100 µM.

Question: What about the GI50 (HS 578T breast) of the same compound?
Answer: Its GI50 is 7.27 µM.

Question: And the TGI (HS 578T breast)?
Answer: The TGI was over 100 µM.

Question: And the GI50 (NCI-H522 lung)?
Answer: The GI50 was 10.3 µM.

Question: And the TGI (NCI-H522 lung)?
Answer: Its TGI is over 100 µM.

Question: What about the GI50 (TK-10 renal) of the same compound?
Answer: The GI50 was over 39 µM.

Question: And the TGI (TK-10 renal)?
Answer: Its TGI is over 94.1 µM.

Question: And the GI50 (SF-295 CNS)?
Answer: The GI50 was 2.87 µM.

Question: What about the TGI (SF-295 CNS) of the same compound?
Answer: The TGI was 9.01 µM.

Question: And the GI50 (NCI-H460 lung)?
Answer: Its GI50 is 3.06 µM.

Question: And the TGI (NCI-H460 lung)?
Answer: Its TGI is over 28.5 µM.

Question: And the GI50 (K-562 leukemia)?
Answer: Its GI50 is 3.8 µM.

Question: What about the TGI (K-562 leukemia) of the same compound?
Answer: The TGI was over 100 µM.

Question: What about the GI50 (ACHN renal) of the same compound?
Answer: Its GI50 is 6.45 µM.

Question: What about the TGI (ACHN renal) of the same compound?
Answer: Its TGI is over 100 µM.

Question: And the GI50 (RXF 393 renal)?
Answer: The GI50 was 3.47 µM.

Question: What about the TGI (RXF 393 renal) of the same compound?
Answer: Its TGI is over 62.8 µM.

Question: What about the GI50 (SN12C renal) of the same compound?
Answer: The GI50 was over 100 µM.

Question: And the TGI (SN12C renal)?
Answer: The TGI was over 100 µM.
